Assay results taken from patent US8426429B2, “2-amino-quinazoline derivatives useful as inhibitors of β-secretase (BACE)” (Jansssen Pharmaceutica N.V., priority 2004, dated 2013).

Target: T1, β-secretase (BACE) (Homo sapiens, UniProt P56817)
T1 construct: purchased Panvera
Test: BACE FS1 % Inhibition Assay
Assay type: biochemical
In short: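 Percent inhibition per compound concentration was referenced to vehicle-treated enzyme and no-enzyme wells. Enzyme at a 4 μg/mL working stock plus compound was mixed for 20 min at room temperature before the FS1 substrate (300 μg/mL working stock) was added for a 1 h room-temperature reaction.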

T1 sequence (P56817 46-501): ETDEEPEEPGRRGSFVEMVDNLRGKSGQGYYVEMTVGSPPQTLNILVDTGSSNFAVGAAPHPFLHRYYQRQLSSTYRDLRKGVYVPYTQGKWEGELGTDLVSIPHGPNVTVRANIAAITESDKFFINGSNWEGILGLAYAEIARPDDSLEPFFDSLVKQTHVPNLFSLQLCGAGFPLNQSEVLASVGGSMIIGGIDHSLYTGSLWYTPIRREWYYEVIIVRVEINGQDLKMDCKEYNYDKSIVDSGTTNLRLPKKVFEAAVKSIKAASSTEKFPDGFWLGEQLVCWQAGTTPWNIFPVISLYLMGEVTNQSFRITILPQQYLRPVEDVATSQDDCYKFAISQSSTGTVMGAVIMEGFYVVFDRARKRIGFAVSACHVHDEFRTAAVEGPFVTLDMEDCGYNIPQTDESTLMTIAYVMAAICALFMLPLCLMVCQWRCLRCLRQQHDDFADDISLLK

SMILES | % Inhibition (FS) (0.3 μM test compound) | % Inhibition (FS) (1 μM test compound) | % Inhibition (FS) (3 μM test compound) | % Inhibition (FS) (10 μM test compound) | % Inhibition (FS) (0.3 μM compound, FS1 substrate) | % Inhibition (FS) (1 μM compound, FS1 substrate) | % Inhibition (FS) (3 μM compound, FS1 substrate)
COc1ccccc1-c1ccc2c(c1)CN(CCNC(=O)CCN)C(N)=N2 [Compound 493] | <30% | <30% | 49% |  |  |  | 
CC(C)(C)c1ccc(C(=O)NCCN2Cc3cc(Oc4ccccc4)ccc3N=C2N)cc1 [Compound 156] |  |  | <30% | 40% |  |  | 
NC1=Nc2ccc(Oc3ccccc3)cc2CN1CCNC(=O)CCc1ccccc1 [Compound 155] |  |  | <30% | 49% |  |  | 
CC(C)(C)C(=O)Nc1cccc(CN2Cc3cc(Oc4ccccc4)ccc3N=C2N)c1 [Compound 290] | <30% | <30% | <30% |  |  |  | 
CN(CCN1Cc2cc(Oc3ccccc3)ccc2N=C1N)C1CCCCC1 [Compound 429] | <30% | <30% | <30% |  |  |  | 
NC1=Nc2ccc(-c3cccc(C(F)(F)F)c3)cc2CN1CCNC(=O)Cc1ccccc1 [Compound 600] | <30% | <30% | 41% |  |  |  | 
Cc1cc(C(=O)NCCN2Cc3cc(-c4cccc(CO)c4)ccc3N=C2N)c(C)o1 [Compound 589] | <30% | <30% | <30% |  |  |  | 
CS(=O)(=O)Nc1ccccc1-c1ccc2c(c1)CN(CCNC(=O)C1CCCCC1)C(N)=N2 [Compound 539] | <30% | <30% | <30% |  |  |  | 
NC1=Nc2ccc(Oc3ccccc3)cc2CN1C1CCCCN(C(=O)C23CC4CC(CC(C4)C2)C3)C1 (stereo not drawn) [Compound 550] | <30% | <30% | 67% |  |  |  | 
COc1ccccc1-c1ccc2c(c1)CN(CCNC(=O)CN)C(N)=N2 [Compound 490] | <30% | <30% | <30% |  |  |  | 
CCCCC(CC)C(=O)NCCN1Cc2cc(-c3ccccc3C)ccc2N=C1N (stereo not drawn) [Compound 662] |  |  |  |  | 66% | 97% | 
COc1ccccc1-c1ccc2c(c1)CN(Cc1cccc(C(=O)N(C)C3CCCCC3)c1)C(NC(C)=O)=N2 [Compound 607] | 94% | 116% | 123% |  |  |  | 
NC1=Nc2ccc(-c3ccccc3F)cc2CN1CCNC(=O)C1CCOCC1 [Compound 687] |  |  |  |  | <30% | 50% | 87%

Further lines, results first:

% Inhibition (FS) (0.3 μM test compound) | % Inhibition (FS) (1 μM test compound) | % Inhibition (FS) (3 μM test compound) | % Inhibition (FS) (10 μM test compound) | % Inhibition (FS) (0.3 μM compound, FS1 substrate) | % Inhibition (FS) (1 μM compound, FS1 substrate) | % Inhibition (FS) (3 μM compound, FS1 substrate) | SMILES
48% | 90% | 108% |  |  |  |  | NC1=Nc2ccc(Oc3ccccc3)cc2CN1CCNC(=O)C(c1ccccc1)c1ccccc1 [Compound 207]
<30% | <30% | <30% |  |  |  |  | CCCCCOc1ccc2c(c1)CN(Cc1cccc(C(=O)N(C)C3CCCCC3)c1)C(N)=N2 [Compound 516]
<30% | <30% | <30% |  |  |  |  | CC(c1ccccc1)c1ccc2c(c1)CN(Cc1cccc(C(=O)N(C)C3CCCCC3)c1)C(N)=N2 (stereo not drawn) [Compound 332]
 |  |  |  | <30% | <30% | 51% | CC(=O)N1CCC(C(=O)NCCN2Cc3cc(-c4ccccc4Cl)ccc3N=C2N)CC1 [Compound 691]
<30% | <30% | <30% |  |  |  |  | CN(C(=O)c1ccccc1CN1Cc2cc(Oc3ccccc3)ccc2N=C1N)C1CCCCC1 [Compound 463]
<30% | <30% | <30% |  |  |  |  | CSc1ccccc1Oc1ccc2c(c1)CN(Cc1cccc(C(=O)N(C)C3CCCCC3)c1)C(N)=N2 [Compound 474]
56% | 87% | 104% |  |  |  |  | Cc1ccccc1-c1ccc2c(c1)CN(CCNC(=O)C1CCC1)C(N)=N2 [Compound 656]
